The record followed here is patent publication US20220306623A1, “PYRIDYL OR PYRIMIDYL MTOR KINASE INHIBITORS” (GLAXOSMITHKLINE INTELLECTUAL PROPERTY DEVELOPMENT LIMITED, priority 2019, published 2022).

The subject of the first assay is type I collagen deposition in primary lung fibroblasts derived from human tissue. Briefly: Type I collagen deposition (scar-in-a-jar) high content screening assay. The format is cell-based. The following applies: Primary lung fibroblast, 72 h, human pulmonary fibroblasts, 96-well, TGFβ-1 1 ng/ml 72 h, collagen intensity, read-out: mean pIC50, type I collagen deposition (scar-in-a-jar) (converted). As to the method: Cellular type I collagen deposition was measured by adapting a published method; scar-in-a-jar (Chen et al., 2009) to primary lung fibroblasts derived from human tissue and combining with high content analysis to permit fluorescent quantification of collagen deposited in the extracellular matrix (ECM). The human biological samples were sourced ethically and their research use was in accord with the terms of the informed consents under an IRB/EC approved protocol. Human pulmonary fibroblasts were maintained in DMEM media (Gibco, Catalogue No 21969) supplemented with 4 mM L-glutamine (Gibco Catalogue No 25030-024) and 100/heat inactivated FBS (Gibco #10270-106, Lot #42F6663K) at 37° C. in 10%/CO2. Cells were harvested and seeded at 10,000 cells per well (85 μL/well) into black walled 96 well imaging plates (BD Falcon, 353219) in assay media (0.4%/heat inactivated FBS, 4 mM L-glutamine) and incubated overnight at 37° C., 10%/CO2.
Test compounds were dissolved in 1000/DMSO to give 10 mM stocks which were further diluted (serial 1:3) to generate 10 point concentration response curves. Assay media was supplemented with 112.5 mg/ml Ficoll 70 (Sigma, Catalogue No F2878), 75 mg/ml Ficoll 400 (Sigma, Catalogue No F4375) and 50 µg/ml ascorbic acid (Sigma, Catalogue No A8960). 3 μL compound were added to 297 μL assay media (10× compound final concentration in 1% DMSO).
Diluted compounds (15 μL) were transferred to plates containing cells and incubated for 3 h at 37° C. in 10% CO2. Transforming growth factor (TGF)β-1 (R&D Systems, Catalogue No 100-B/CF) was reconstituted according to manufacturer's instructions to give 10 µg/mL (stock) and further diluted (1 in 3333) in assay media containing Ficoll and ascorbic acid. 50 μL TGFβ-1 was added to cell plates (1 ng/ml final) and cells incubated for 72 h at 37° C. in 10% CO2.
Media was removed and cells were fixed with 50 µL/well 100% ice-cold methanol (2 min). Methanol was decanted and cells washed with PBS (3×). To permeabilise, cells were incubated with PBS containing 0.1% Triton X 100 for 90 sec, followed by PBS wash (3×). Cells were incubated with mouse anti human type I collagen monoclonal antibody (Sigma, Catalogue No C2456) diluted 1:1000 in PBS overnight at 4° C. Cells were washed with PBS containing 0.05% Tween-20 (3×) and incubated with secondary alexa fluor 488 goat-anti-mouse antibody (Invitrogen, Catalogue No A11001, 1 in 500 in PBS) and Hoechst 33342 (Sigma, Catalogue No H21492), 1 in 10000 in PBS) for 1 h at RT, prior to washing with PBS containing 0.05% Tween (×3) before finally adding 200 µL/well PBS.
Type I collagen immunoreactivity was detected using the Thermofisher CellInsight NXT set to excitation and emission wavelengths for DAPI and FITC with exposure adjusted to appropriate levels. Images were analysed using Cellomics Studio software (Version 6.6.0, build 8153) and computational algorithms to quantify “collagen intensity” and “cell count”.
Data analysis was performed by determining % response values for test compounds relative to the maximum (TGFβ-1 stimulation) fitting a ‘log(inhibitor) vs. response-Variable slope (four parameters)’ curve and recording pIC50 (inverse of Log IC50) values for test compounds.
Consider `CNCc1cc2nc(-c3cc(CS(C)(=O)=O)cc(N4CCO[C@H](C)[C@H]4C)n3)ccc2[nH]1` [Example 8, 1-(5-(6-((2R,3R)-2,3-dimethylmorpholino)-4-((methylsulfonyl)methyl)pyridin-2-yl)-1Hpyrrolo[3,2-b]pyridin-2-yl)-Nmethylmethanamine], for which the IC50 is less than 3.98 µM.

In the case of `CC[C@H]1COCCN1c1cc(C2(S(C)(=O)=O)CCNCC2)cc(-c2ccc3[nH]c(C)cc3n2)n1` [Example 18, (S)-3-ethyl-4-(6-(2-methyl-1H-pyrrolo[3,2-b]pyridin-5-yl)-4-(4-(methylsulfonyl)piperidin-4-yl)pyridin-2-yl)morpholine], the IC50 is less than 3.98 µM.

Turning to `CC[C@H]1COCCN1c1cc(CS(N)(=O)=O)nc(-c2ccc3[nH]c(CNC)cc3n2)n1` [Example 6, {6-[(3S)-3-ethylmorpholin-4-yl]-2-{2-[(methylamino)methyl]-1H-pyrrolo[3,2-b]pyridin-5-yl}pyrimidin-4-yl}methanesulfonamide], the IC50 is more than 3.98 µM.

In the case of `CC[C@H]1COCC(=O)N1c1cc(CS(C)(=O)=O)cc(-c2ccc3[nH]c(CO)cc3n2)n1` [Example 27], the IC50 is less than 3.98 µM.

Consider `CC[C@H]1COCCN1c1cc(C2(S(C)(=O)=O)CCOCC2)nc(-c2ccc3[nH]c(CO)cc3n2)n1` [Example 4, (5-{4-[(3S)-3-ethylmorpholin-4-yl]-6-(4-methanesulfonyloxan-4-yl)pyrimidin-2-yl}-1H-pyrrolo[3,2-b]pyridin-2-yl)methanol], for which the IC50 is more than 3.98 µM.

With `CC[C@H]1COCCN1c1cc(CS(C)(=O)=O)nc(-c2ccc3[nH]c(CO)cc3n2)n1` [Example 2, (S)-(5-(4-(3-ethylmorpholino)-6-((methylsulfonyl)methyl)pyrimidin-2-yl)-1H-pyrrolo[3,2-b]pyridin-2-yl)methanol], the IC50 is less than 3.98 µM.

For another assay, the system named is phosphorylated Akt at serine 473 (pAKTs473) in primary lung fibroblasts derived from explanted tissue. Briefly: Phosphorylated Akt (Ser473) in vitro immunoassay (MSD), fibroblasts from explanted tissue. The format is cell-based. The note with it: Homo sapiens, Primary lung fibroblast, 96-well, compound 2 h, PDGF-BB 10 ng/ml 15 min, read-out: mean pIC50, pAKTs473 immunoassay (converted). The text has this:
Immunoassay using the Meso Scale Discovery (MSD) platform to measure the effect of test compounds on phosphorylated Akt at serine 473 (pAKTs473) in primary lung fibroblasts derived from explanted tissue. The human biological samples were sourced ethically and their research use was in accord with the terms of the informed consents under an IRB/EC approved protocol.
Human lung fibroblasts were routinely maintained in Dulbecco's Modified Eagle Medium (DMEM; Gibco, catalogue no. 21969-035) supplemented with 10% foetal bovine serum (FBS (heat-inactivated); Gibco, catalogue no. 10270-106) and 4 mM L-glutamine (Gibco, catalogue no. 25030024) at 37° C. in 10% CO2.
For the assay, cells were harvested using Trypsin/EDTA (Gibco, catalogue no. 25300-062), resuspended to give 1.2×10^5 cells/ml and 100 ul/well seeded into 96-well plates (Corning, Catalogue No. 3596) in DMEM supplemented with 0.4% FCS and 4 mM L-glutamine and incubated overnight at 37° C. in 10% CO2.
Test compounds were dissolved in 100% DMSO to give 10 mM stock solutions and serially diluted to generate a 10-point concentration response curve. Compounds were further diluted 100-fold into 96-well V-bottom polypropylene plates (Greiner, Catalogue no. 651201) with DMEM supplemented with 0.4% FCS and 4 mM L-glutamine to give 100 µM top compound concentration in 1% DMSO.
Compounds were further diluted 10-fold by transfer to 96-well plates containing cells ([…] top concentration, 0.1% DMSO final) and incubated for 2 h at 37° C. in 10% CO2, prior to stimulation with platelet-derived growth factor (PDGF)-BB (Gibco, Catalogue no. PHG0041) at 10 ng/ml (final) for 15 min at 37° C. in 10% CO2. Cell assay plates were then incubated on ice and treated with lysis buffer (Cell Signalling Technology, Catalogue No. 9803) containing protease and phosphatase inhibitors (Halt, Thermo Scientific, Catalogue No. 78444) for 30 min.
MSD plates (MSD, Phospho(Ser473)/Total Akt Whole Cell Lysate Kit, Catalogue No. K15100D-3) were blocked with 1×blocking buffer as per the manufacturer's instructions at RT with shaking, followed by washing (×3) with Tris-buffered saline containing 0.05% Tween-20 (TBST). Cell lysates (30 ul) were added and MSD plates incubated for 1 h at RT with shaking.
Plates were washed with TBST (×3), prior to addition of SULFO-TAG Anti-Total Akt Antibody as per the manufacturer's instructions and shaken at RT for 1 h. After washing with 1×TBST (×3), read buffer (1×) (MSD, Catalogue No. R92TC-1) was added as per the manufacturer's instructions before detecting electrochemiluminescence (MSD Sector Imager 600).
Data analysis was performed using non-linear regression analysis to determine IC50 values for test compounds. Minimum (no PDGF-BB stimulation) and maximum responses (+PDGF-BB stimulation) were monitored for assay quality control.
As to `CC[C@H]1COCC(=O)N1c1cc(CS(C)(=O)=O)cc(-c2ccc3[nH]c(C)cc3n2)n1` [Example 24, (S)-5-ethyl-4-(6-(2-methyl-1H-pyrrolo[3,2-b]pyridin-5-yl)-4-((methylsulfonyl)methyl)pyridin-2-yl)morpholin-3-one], the IC50 was less than 0.1 µM.

Turning to `CC[C@H]1COCCN1c1cc(CS(C)(=O)=O)nc(-c2ccc3[nH]c(CNC)cc3n2)n1` [Example 1, [(5-{4-[(3S)-3-ethylmorpholin-4-yl]-6-(methanesulfonylmethyl)pyrimidin-2-yl}-1H-pyrrolo[3,2-b]pyridin-2-yl)methyl](methyl)amine], the IC50 is less than 0.1 µM.

Turning to `CCc1cc2nc(-c3nc(CS(C)(=O)=O)cc(N4C(=O)COC[C@@H]4CC)n3)ccc2[nH]1` [Example 15, (5S)-5-ethyl-4-(2-{2-ethyl-1H-pyrrolo[3,2-b]pyridin-5-yl}-6-(methanesulfonylmethyl)pyrimidin-4-yl)morpholin-3-one], the IC50 is less than 0.1 µM.

In the case of `CC[C@H]1COCCN1c1cc(CS(N)(=O)=O)nc(-c2ccc3[nH]c(CNC)cc3n2)n1` [Example 6, {6-[(3S)-3-ethylmorpholin-4-yl]-2-{2-[(methylamino)methyl]-1H-pyrrolo[3,2-b]pyridin-5-yl}pyrimidin-4-yl}methanesulfonamide], the IC50 is less than 0.1 µM.
